Patent US20240252477A1, “NLRP3 INFLAMMASOME-INHIBITING COMPOUNDS AND THE USE THEREOF” (UNIVERSITA' DEGLI STUDI DI TORINO (60%), priority 2021, published 2024)

Tests used:
NLRP3 inflammasome = target: T1, NLRP3 inflammasome (Homo sapiens, UniProt Q96P20); experiment: NLRP3-dependent pyroptosis (LDH release) in PMA-differentiated THP-1 cells stimulated with LPS/ATP; type: cell-based; conditions: compounds at 10 μM for 1 hour; differentiated THP-1, LPS 10 μg/mL 4 hours, ATP 1.5 hours; read-out: Pyroptosis inhibition (% ± SEM)
T1 construct: The THP-1 cells were differentiated into macrophages by treating them with PMA 50 nM; endogenous in cells; host or cells: THP-1 (human monocytic leukaemia line), PMA-differentiated, primed with LPS, triggered with ATP
Protocol: THP-1 cells, a monocytic human cell line derived from the peripheral blood of a patient suffering from acute monocytic leukaemia (www.atcc.org), were cultured in RPMI 1640 medium (Aurogene, Rome, Italy), with the addition of foetal bovine serum (10%, Aurogene), L-glutamine (2 mM, Aurogene), penicillin (100 IU/ml, Aurogene) and streptomycin ([…], Aurogene). The medium was changed every 2-3 days, and the cells were maintained in an incubator at 37° C., with 5% CO2, and with suitable humidity.
The cells were seeded in 48-well plates (90.000 cells/well), and differentiated with phorbol 12-myristate 13-acetate (PMA—50 nM, 24 hours; Sigma-Aldrich). On the next day, the differentiated THP-1s were washed twice with the balanced saline solution phosphate-buffered saline (PBS), and stimulated with lipopolysaccharide (LPS) (10 μg/mL, 4 hours; Sigma-Aldrich), prepared in serum-free medium. After 4 hours the cells were incubated with the compounds at the concentration of 10 μM for 1 hour, operating in triplicate; INF176 and INF177 were tested at three different concentrations: […]. Finally, the cells were stimulated with ATP 5 mm for 1.5 hours. The supernatants were then harvested for the subsequent analyses.
LDH release into the supernatant obtained as described above was quantified using the CytoTox 96 nonradioactive cytotoxicity assay (Promega Corporation, Madison, […], USA), a colorimetric assay wherein LDH activity is measured with an NADH-dependent enzymatic reaction:
Briefly, an equal volume of CytoTox Reagent was added to the supernatant and, after 30 minutes' incubation, the reaction was stopped by adding the stop solution. The formazan concentration was determined by measuring absorbance, using a microplate reader (Victor X4—EnSight, PerkinElmer, Waltham, MA, USA), at λ=490 nm. Cell death was expressed according to the manufacturer's instructions.
The compound INF176 was tested to measure its ability to inhibit NLRP3-dependent cell pyroptosis in human macrophages, using the experimental protocol previously published [Cocco et al. 2017].
The THP-1 cells were differentiated into macrophages by treating them with PMA 50 nM (24 hours) and then with LPS (10 μg/mL) for 4 hours. The cells were treated with the compound (10 μM) for 1 hour. Pyroptosis was induced by treatment with ATP 5 mm. After 90 minutes, cell death was evaluated by measuring the LDH level in the cell supernatant using the CytoTox 96 Non-Radioactive Cytotoxicity Assay (Promega Corporation, Madison, […], USA).

Cytotoxicity (MTT assay) = type: cell-based, human; conditions: human; THP-1 cells, 72 hours' incubation
Protocol: The THP-1 cells were seeded in a 96-well plate (15.000 cells/well) and incubated with the test compounds at four different concentrations (0.1, 1, 10 and 100 μM), operating in triplicate. The cells were placed in an incubator at 37° C., with 5% CO2, and cell viability was measured after 72 hours' incubation, using the MTT assay. This is a colorimetric assay, based on conversion of water-soluble 3-(4,5-dimethylthiazol-2-yl)-2,5-diphenyltetrazolium bromide (MTT; Sigma-Aldrich) to a violet-coloured insoluble formazan, by the mitochondrial dehydrogenase present in the live cells. The formazan is solubilised in acidified isopropanol, and the concentration is determined by measuring absorbance with a microplate reader (Victor X4—Ensight, PerkinElmer) at λ=570 nm. Viability was expressed as a percentage of the viability of the control cells, which were either untreated or treated with the carrier. The IC50 was calculated with the Graph Pad Prism software.

T1 sequence (Q96P20 whole entry): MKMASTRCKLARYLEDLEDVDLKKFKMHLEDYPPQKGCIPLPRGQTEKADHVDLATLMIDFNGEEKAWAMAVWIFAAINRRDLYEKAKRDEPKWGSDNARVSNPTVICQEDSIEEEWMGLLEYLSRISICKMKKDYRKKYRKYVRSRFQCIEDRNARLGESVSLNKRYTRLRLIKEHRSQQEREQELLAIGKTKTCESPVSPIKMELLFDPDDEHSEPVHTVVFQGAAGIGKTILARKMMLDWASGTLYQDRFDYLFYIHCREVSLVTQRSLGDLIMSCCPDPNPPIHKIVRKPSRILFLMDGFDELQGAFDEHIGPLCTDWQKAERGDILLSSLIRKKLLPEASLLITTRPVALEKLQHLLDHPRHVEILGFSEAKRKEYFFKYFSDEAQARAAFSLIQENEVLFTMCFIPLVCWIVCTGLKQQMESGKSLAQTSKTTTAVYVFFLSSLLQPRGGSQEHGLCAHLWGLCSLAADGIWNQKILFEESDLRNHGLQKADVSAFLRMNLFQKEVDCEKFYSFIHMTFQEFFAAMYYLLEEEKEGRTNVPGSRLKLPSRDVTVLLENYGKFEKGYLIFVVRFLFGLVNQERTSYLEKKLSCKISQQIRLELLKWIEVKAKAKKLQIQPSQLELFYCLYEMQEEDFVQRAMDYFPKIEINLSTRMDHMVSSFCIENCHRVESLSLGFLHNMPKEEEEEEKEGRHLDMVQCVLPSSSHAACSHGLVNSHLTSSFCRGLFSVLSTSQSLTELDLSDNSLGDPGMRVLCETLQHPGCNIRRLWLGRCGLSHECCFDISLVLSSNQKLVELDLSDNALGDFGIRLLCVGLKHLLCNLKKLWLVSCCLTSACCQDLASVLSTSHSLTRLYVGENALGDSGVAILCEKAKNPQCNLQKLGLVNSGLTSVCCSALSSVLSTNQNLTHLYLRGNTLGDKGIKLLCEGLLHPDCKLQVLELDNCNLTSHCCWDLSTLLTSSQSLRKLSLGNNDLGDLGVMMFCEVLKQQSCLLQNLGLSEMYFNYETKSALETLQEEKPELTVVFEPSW

| SMILES | inhibition at 10 µM (NLRP3 inflammasome) [%] | IC50 at 72 h (Cytotoxicity (MTT assay)) [µM] |
| --- | --- | --- |
| CCOC(=O)[C@H]1CCCN(C(=O)/C(=C/c2ccccc2Cl)CSc2ccccc2)C1 [INF203, ethyl (S,Z)-1-(3-(2-chlorophenyl)-2-((phenylthio)methyl)acryloyl)piperidine-3-carboxylate] | 14.4 ± 4.3 | – |
| CCOC(=O)C(Cc1ccccc1Cl)C[S+]([O-])c1ccccc1 (stereo not shown) [INF48, ethyl 2-(2-chlorobenzyl)-3-(phenylsulphinyl)propanoate] | 33.6 ± 1.2 | > 35.1 |
| CCOC(=O)C1CCN(C(=O)C(CSc2ccccc2)Cc2ccccc2Cl)CC1 (stereo not shown) [INF186, ethyl 1-(2-(2-chlorobenzyl)-3-(phenylthio)propanoyl)piperidine-4-carboxylate] | < 10 | 94.6 ± 4 |
| CCCNC(=O)/C(=C/c1ccccc1Cl)CSc1ccccc1 [INF82, (Z)-3-(2-chlorophenyl)-2-((phenylthio)methyl)-N-propylacrylamide] | 19 ± 4.1 | 63.3 ± 1.3 |
| CCOC(=O)/C(=C/c1ccccc1Cl)CS(=O)(=O)c1ccccc1 [INF51, ethyl (Z)-3-(2-chlorophenyl)-2-((phenylsulphonyl)methyl)acrylate] | 38.9 ± 4.5 | 20.1 ± 14.3 |
| CCOC(=O)[C@H](CN1CCCC1)[C@H](O)c1ccccc1Cl (stereo in doubt) [INF37 anti] | 21.1 ± 2.9 | – |
| NS(=O)(=O)c1ccc(CCNC(=O)/C(=C/c2ccccc2Cl)CSc2ccccc2)cc1 [INF220, (Z)-3-(2-chlorophenyl)-2-((phenylthio)methyl)-N-(4-sulphamoylphenethyl)acrylamide] | 73.9 ± 13.9 | > 62.5 |
| CCOC(=O)C1CCCN(C(=O)/C(=C/c2ccccc2[N+](=O)[O-])CSc2ccccc2)C1 (stereo not shown) [INF231, ethyl (Z)-1-(3-(2-nitrophenyl)-2-((phenylthio)methyl)acryloyl)piperidine-3-carboxylate] | 32.6 ± 19.8 | – |
| CCOC(=O)C1CCCN(C(=O)/C(=C/c2ccccc2Cl)CSC2CCCCC2)C1 (stereo not shown) [INF194, ethyl (Z)-1-(3-(2-chlorophenyl)-2-((cyclohexylthio)methyl)acryloyl)piperidine-3-carboxylate] | < 10 | 78.3 ± 10.2 |
| CCOC(=O)[C@@H](CN1CCCC1)[C@H](O)c1ccccc1Cl (racemic) [INF37 syn] | 32.2 ± 5.7 | – |
| CCOC(=O)[C@H]1CCCN(C(=O)[C@@H](CSc2ccccc2)Cc2ccccc2Cl)C1 (racemic) [INF184+INF185, ethyl 1-(2-(2-chlorobenzyl)-3-(phenylthio)propanoyl)piperidine-3-carboxylate] | – | 75.4 ± 2.6 |
| CCOC(=O)C(CN1CCCC1)C(O)c1ccccc1Cl (stereo not drawn) [INF37 (syn), ethyl 3-(2-chlorophenyl)-3-hydroxy-2-(pyrrolidin-1-ylmethyl)propanoate] | – | > 100 |
| O=C(O)/C(=C/c1ccccc1Cl)CSC1CCCCC1 [INF86, (Z)-3-(2-chlorophenyl)-2-((cyclohexylthio)methyl)acrylic acid] | < 10 | > 100 |
| CCOC(=O)C1CCCN(C(=O)/C(=C/c2cccc(Cl)c2)CSc2ccccc2)C1 (stereo not shown) [INF230, ethyl (Z)-1-(3-(3-chlorophenyl)-2-((phenylthio)methyl)acryloyl)piperidine-3-carboxylate] | 39 ± 15.4 | – |
| CCOC(=O)/C(=C/c1ccccc1Cl)CSCC(NC(C)=O)C(=O)O (stereo not shown) [INF85] | 21.3 ± 4.6 | > 100 |
| CCOC(=O)C1CCCN(C(=O)C(CSC2CCCCC2)Cc2ccccc2Cl)C1 (stereo not shown) [INF192, ethyl 1-(2-(2-chlorobenzyl)-3-(cyclohexylthio)propanoyl)piperidine-3-carboxylate] | 62.2 ± 9.78 | 59.8 ± 0.7 |
| CCOC(=O)/C(=C/c1ccccc1Cl)CSC1CCCCC1 [INF56, (Z)-ethyl 3-(2-chlorophenyl)-2-((cyclohexylthio)methyl)acrylate] | 41.6 ± 3.9 | > 100 |

Now from value to compound, other results behind:

| inhibition at 10 µM (NLRP3 inflammasome) [%] | SMILES | IC50 at 72 h (Cytotoxicity (MTT assay)) [µM] |
| --- | --- | --- |
| < 10 | CCOC(=O)C1CCN(C(=O)C(CSC2CCCCC2)Cc2ccccc2Cl)CC1 (stereo not shown) [INF193, ethyl 1-(2-(2-chlorobenzyl)-3-(cyclohexylthio)propanoyl)piperidine-4-carboxylate] | 77.5 ± 7.3 |
| 69.1 ± 2.2 | CCOC(=O)/C(=C/c1ccccc1Cl)CSc1ccccc1 [INF42, ethyl (Z)-3-(2-chlorophenyl)-2-((phenylthio)methyl)acrylate] | > 100 |
| < 10 | CCOC(=O)[C@@H](C[S+]([O-])c1ccccc1)[C@H](O)c1ccccc1Cl (mixture of isomers) [INF44, ethyl 3-(2-chlorophenyl)-3-hydroxy-2-((phenylsulphinyl)methyl)propanoate] | > 100 |
| 41.7 ± 5.2 | CCOC(=O)C(Cc1ccccc1Cl)CN1CCCC1 (stereo not shown) [INF61, ethyl 2-(2-chlorobenzyl)-3-(pyrrolidine-1-yl)propanoate] | > 100 |
| 50.6 ± 5.8 | CCOC(=O)C(Cc1ccccc1Cl)CS(=O)(=O)c1ccccc1 (stereo not shown) [INF49, ethyl 2-(2-chlorobenzyl)-3-(phenylsulphonyl)-propanoate] | > 100 |
| 34.5 ± 0.3 | CCOC(=O)/C(=C/c1ccccc1Cl)COc1ccccc1 [INF57, (E)-ethyl 3-(2-chlorophenyl)-2-(phenoxymethyl)acrylate] | > 100 |
| < 10 | CCOC(=O)[C@@H]1CCCN(C(=O)[C@@H](CSc2ccccc2)Cc2ccccc2Cl)C1 (racemic) [INF185, ethyl 1-(2-(2-chlorobenzyl)-3-(phenylthio)propanoyl)piperidine-3-carboxylate] | – |
| 41.1 ± 2.5 | CCOC(=O)/C(=C/c1ccccc1Cl)C[S+]([O-])c1ccccc1 (stereo not shown) [INF50, (Z)-ethyl 3-(2-chlorophenyl)-2-((phenylsulphinyl)methyl)acrylate] | 9.7 ± 0.2 |
| 51 ± 5.6 | CCOC(=O)C(CSc1ccccc1)Cc1ccccc1Cl (stereo not shown) [INF43, ethyl 2-(2-chlorobenzyl)-3-(phenylthio)propanoate] | > 100 |
| 40.9 ± 1.2 | CCOC(=O)[C@@H]1CCCN(C(=O)/C(=C/c2ccccc2Cl)CSc2ccccc2)C1 [INF202, ethyl (R,Z)-1-(3-(2-chlorophenyl)-2-((phenylthio)methyl)acryloyl)piperidine-3-carboxylic acid] | – |
| < 10 | O=C(O)C1CCN(C(=O)/C(=C/c2ccccc2Cl)CSc2ccccc2)CC1 [INF187, (Z)-1-(3-(2-chlorophenyl)-2-((phenylthio)methyl)acryloyl)piperidine-4-carboxylic acid] | > 100 |
| 26.9 ± 4.9 | CCOC(=O)[C@H](CSc1ccccc1)[C@H](O)c1ccccc1Cl (mixture of isomers) [INF38a, Ethyl(2S,3S)-3-(2-chlorophenyl)-3-hydroxy-2-(phenylsulphanylmethyl)-propanoate and ethyl(2S,3R)-3-(2-chlorophenyl)-3-hydroxy-2-(phenylsulphanylmethyl)propanoate] | > 100 |
| < 10 | CCOC(=O)C(CSC1CCCCC1)Cc1ccccc1Cl (stereo not shown) [INF110, ethyl 2-(2-chlorobenzyl)-3-(cyclohexylthio)propanoate] | 66 ± 1.4 |
| < 10 | CCOC(=O)C1CCN(C(=O)/C(=C/c2ccccc2Cl)CSC2CCCCC2)CC1 [INF188, ethyl (Z)-1-(3-(2-chlorophenyl)-2-((cyclohexylthio)methyl)acryloyl)piperidine-4-carboxylate] | 58.6 ± 5.3 |
| 45.8 ± 6.7 | CCOC(=O)[C@@H](CS(=O)(=O)c1ccccc1)[C@H](O)c1ccccc1Cl (stereo in doubt) [INF45, ethyl 3-(2-chlorophenyl)-3-hydroxy-2-((phenylsulphonyl)methyl)propanoate] | > 100 |
